The values that follow are results of earlier work, collected in patent US20150110862A1, “Sweet Gum Fruit Extract as a Therapeutic Agent” (Board of Supervisors of Louisiana State University and …, priority 2007, published 2015).

In brackets after ≈: the same amount, converted by molar mass.

The test system of data set [1] is 39 human cancer cell lines. As to conditions: literature.
In data set [2] the test system is UVB-radiation-induced photocarcinogenesis. Conditions: oral administration, literature.
In a further data set the test system is two-stage carcinogenesis. Conditions: literature.
In data set [3] the test system is human prostate cancer PC3 cells. As to conditions: published articles.

`CC1(C)CCC2(C(=O)O)CCC3(C)C(=CC(=O)C4C5(C)CCC(=O)C(C)(C)C5CCC43C)C2C1` (centres unmarked) [3,11-dioxoolean-12-en-28-oic acid]: in data set [1], the “cytotoxicity against 39 human cancer cell lines” value (shortened to “cytotoxicity”) is recorded as “weaker activity”. Consider `C=C(C)[C@@H]1CC[C@]2(C(=O)O)CC[C@]3(C)[C@@H](CC[C@@H]4[C@@]5(C)CCC(=O)C(C)(C)[C@@H]5[C@H](O)C[C@]43C)[C@@H]12` [6β-hydroxy-3-oxolup-20 (29)-en-28-oic acid], for which, in data set [1], the “cytotoxicity” value is on record as “weaker activity”.

Consider `C=C(C)C1CCC2(C(=O)O)CCC3(C)C(CCC4C56CCC(O)(OC5)C(C)(C)C6CCC43C)C12` (stereo not drawn) [3β,25-epoxy-3α-hydroxylup-20(29)-en-28-oic acid], for which the “tumor incidence and tumor multiplicity vs control group” value in data set [2] was “approximate halving of the tumor incidence and tumor multiplicity”. The “anti-tumor activity, two-stage carcinogenesis assay” value in the data set with two-stage carcinogenesis is “moderate inhibitory activities”. As to `CC1(C)CCC2(C(=O)O)CCC3(C)C(=CCC4C5(CO)CCC(O)C(C)(C)C5CCC43C)C2C1` (stereo not drawn) [3α,25-dihydroxyolean-12-en-28-oic acid], in data set [1], the “cytotoxicity” value is recorded as “weaker activity”. With `CC(=O)OC[C@]12CC[C@@H](O)C(C)(C)[C@@H]1CC[C@]1(C)[C@@H]2CC=C2[C@@H]3CC(C)(C)CC[C@]3(C(=O)O)CC[C@]21C` [Terpenoid 1, 25-acetoxy-3α-hydroxyolean-12-en-28-oic acid], the “cytotoxicity” value in data set [1] was “strong cytotoxicity”. In addition, in the data set with two-stage carcinogenesis, the “anti-tumor activity, two-stage carcinogenesis assay” value is “moderate inhibitory activities”. For the same molecule, the “IC50 against human prostate cancer PC3 cells (reported)” value in data set [3] was 5.9 µg/mL (≈ 11.5 µM).
